# Test results reported in US8853230B2, “Inhibitors of JAK” (Portola Pharmaceuticals, Inc., priority 2009, dated 2014).
# Experiments:
# Assay type in all cases: biochemical
# JAK1 = biological target: T1, JAK1 (Homo sapiens, UniProt P23458); assay: Z'-LYTE kinase assay, JAK1 tyrosine phosphorylation activity; settings: read-out: JAK 1 IC50
# T1 construct: 5 μl of catalytic domain recombinant Kinase enzyme+Tyr peptide substrate (Invitrogen, Calif.); purchased Invitrogen
# Summary of the method: (§1)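 Z'-LYTE format using the Tyr6 peptide with recombinant catalytic-domain kinase; 1 h kinase reaction and 1 h development, both at room temperature. IC50s derived from ratiometric FRET signal.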
# JAK2 = biological target: T2, JAK2 (Homo sapiens, UniProt O60674); assay: Z'-LYTE kinase assay, JAK2 tyrosine phosphorylation activity
# T2 construct: 5 μl of catalytic domain recombinant Kinase enzyme+Tyr peptide substrate (Invitrogen, Calif.); purchased Invitrogen
# Summary of the method: as §1
# TYK2 = biological target: T3, TYK2 (Homo sapiens, UniProt P29597); assay: Z'-LYTE kinase assay, TYK2 tyrosine phosphorylation activity
# T3 construct: 5 μl of catalytic domain recombinant Kinase enzyme+Tyr peptide substrate (Invitrogen, Calif.); purchased Invitrogen
# T3 sequence (P29597 897-1176 limits assumed): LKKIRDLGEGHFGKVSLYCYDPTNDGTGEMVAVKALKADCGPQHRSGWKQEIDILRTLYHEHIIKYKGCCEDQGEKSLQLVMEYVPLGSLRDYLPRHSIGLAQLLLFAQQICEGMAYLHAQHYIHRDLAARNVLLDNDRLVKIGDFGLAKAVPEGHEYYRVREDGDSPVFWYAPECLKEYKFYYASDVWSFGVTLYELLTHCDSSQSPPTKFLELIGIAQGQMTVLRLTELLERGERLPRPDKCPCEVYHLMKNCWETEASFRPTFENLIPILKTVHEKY
# Summary of the method: as §1
# JAK3 = biological target: T4, JAK3 (Homo sapiens, UniProt P52333); assay: Z'-LYTE kinase assay, JAK3 tyrosine phosphorylation activity
# T4 construct: 5 μl of catalytic domain recombinant Kinase enzyme+Tyr peptide substrate (Invitrogen, Calif.); purchased Invitrogen
# Summary of the method: as §1
# T4 sequence (P52333 822-1111 limits assumed): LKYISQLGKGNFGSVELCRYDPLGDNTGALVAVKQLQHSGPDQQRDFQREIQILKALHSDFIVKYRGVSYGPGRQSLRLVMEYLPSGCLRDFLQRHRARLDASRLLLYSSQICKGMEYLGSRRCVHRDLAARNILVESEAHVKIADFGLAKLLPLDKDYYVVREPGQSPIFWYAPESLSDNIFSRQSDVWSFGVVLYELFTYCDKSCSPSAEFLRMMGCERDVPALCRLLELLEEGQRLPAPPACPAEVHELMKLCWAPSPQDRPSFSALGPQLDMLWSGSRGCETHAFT
# T1 sequence (P23458 875-1153 limits assumed): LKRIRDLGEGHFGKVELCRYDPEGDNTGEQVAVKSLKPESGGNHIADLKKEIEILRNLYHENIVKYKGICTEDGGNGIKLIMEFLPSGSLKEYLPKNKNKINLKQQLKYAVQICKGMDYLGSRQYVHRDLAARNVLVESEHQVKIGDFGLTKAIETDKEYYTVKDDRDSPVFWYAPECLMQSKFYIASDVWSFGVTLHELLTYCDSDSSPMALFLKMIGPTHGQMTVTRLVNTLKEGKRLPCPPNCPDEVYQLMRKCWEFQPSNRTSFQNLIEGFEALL
# T2 sequence (O60674 849-1124 limits assumed): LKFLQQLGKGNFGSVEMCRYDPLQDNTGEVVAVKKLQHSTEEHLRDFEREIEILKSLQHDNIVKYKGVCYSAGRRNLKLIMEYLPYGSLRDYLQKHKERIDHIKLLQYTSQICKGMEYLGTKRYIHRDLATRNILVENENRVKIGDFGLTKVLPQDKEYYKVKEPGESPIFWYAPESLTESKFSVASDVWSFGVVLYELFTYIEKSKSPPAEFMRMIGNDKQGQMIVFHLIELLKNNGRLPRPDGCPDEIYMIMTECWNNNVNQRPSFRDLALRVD
SMILES,IC50 (JAK1) [nM],IC50 (JAK2) [nM],IC50 (TYK2) [nM],IC50 (JAK3) [nM]
"CN(C(=O)N1CCCC1)c1cccc(Nc2ncc(C(N)=O)c(NCC3CC3)n2)c1 [Example 127, 4-(cyclopropylmethylamino)-2-(3-(N-methylpyrrolidine-1-carboxamido)phenylamino)pyrimidine-5-carboxamide]",100 to 1000,10 to 100,100 to 1000,10 to 100
"CC(=O)N(c1cccc(Nc2ncc(C(N)=O)c(N[C@H](C)c3ccccc3)n2)c1)C1CC1 [Example 161, (R)-2-(3-(N-cyclopropylacetamido)phenylamino)-4-(1-phenylethylamino)pyrimidine-5-carboxamide]",100 to 1000,10 to 100,100 to 1000,1 to 10
"CN(C(=O)N1CCCC1)c1cc(Nc2ncc(C(N)=O)c(NCc3cccc(F)c3)n2)ccc1Cl [Example 242, 2-(4-chloro-3-(N-methylpyrrolidine-1-carboxamido)phenylamino)-4-(3-fluorobenzylamino)pyrimidine-5-carboxamide]",> 1000,> 1000,> 1000,100 to 1000
"C[C@@H](Nc1cc(Nc2cccc(NC(=O)N3CCCC3)c2)ncc1C(N)=O)c1ccccc1 [Example 325, (R)-4-(1-phenylethylamino)-6-(3-(pyrrolidine-1-carboxamido)phenylamino)nicotinamide]",100 to 1000,100 to 1000,100 to 1000,1 to 10
"CC(=O)Nc1cccc(Nc2ncc(C(N)=O)c(Nc3cccc4nsnc34)n2)c1 [Example 192, 2-(3-acetamidophenylamino)-4-(benzo[c][1,2,5]thiadiazo-4-ylamino)pyrimidine-5-carboxamide]",> 1000,10 to 100,10 to 100,1 to 10
"CN(C(=O)N1CCCC1)c1cc(Nc2ncc(C(N)=O)c(NCc3ccccc3)n2)ccc1Cl [Example 241, 4-(benzylamino)-2-(4-chloro-3-(N-methylpyrrolidine-1-carboxamido)phenylamino)pyrimidine-5-carboxamide]",100 to 1000,100 to 1000,100 to 1000,10 to 100
"C[C@@H]1CCCN1C(=O)Nc1cccc(Nc2ncc(C(N)=O)c(N[C@H](C)c3ccccc3)n2)c1 [Example 148, 2-(3-((R)-2-methylpyrrolidine-1-carboxamido)phenylamino)-4-((R)-1-phenylethylamino)pyrimidine-5-carboxamide]",100 to 1000,10 to 100,10 to 100,1 to 10
"CC(=O)Nc1cccc(Nc2ncc(C(N)=O)c(NCCC(C)C)n2)c1 [Example 251, 2-(3-acetamidophenylamino)-4-(isopentylamino)pyrimidine-5-carboxamide]",10 to 100,10 to 100,1 to 10,1 to 10
"CC(=O)Nc1cccc(Nc2ncc(C(N)=O)c(NCC3CCC3)n2)c1 [Example 262, 2-(3-acetamidophenylamino)-4-(cyclobutylmethylamino)pyrimidine-5-carboxamide]",10 to 100,10 to 100,1 to 10,1 to 10
CC(=O)Nc1cccc(Nc2ncc(C(N)=O)c(Nc3ccc(S(C)(=O)=O)cc3)n2)c1 [Example 197],> 1000,10 to 100,10 to 100,10 to 100
"CC(=O)Nc1cccc(Nc2cc(NCC3CCC3)c(C(N)=O)cn2)c1 [Example 331, 6-(3-acetamidophenylamino)-4-(cyclobutylmethylamino)nicotinamide]",100 to 1000,100 to 1000,10 to 100,10 to 100
"CNc1nc(Nc2cccc(NC(=O)N3CCCC3)c2)ncc1C(N)=O [Example 133, 4-(methylamino)-2-(3-(pyrrolidine-1-carboxamido)phenylamino)pyrimidine-5-carboxamide]",100 to 1000,100 to 1000,10 to 100,10 to 100
"CC(=O)Nc1cccc(Nc2cc(NCc3cccc(Cl)c3)c(C(N)=O)cn2)c1 [Example 337, 6-(3-acetamidophenylamino)-4-(3-chlorobenzylamino)nicotinamide]",100 to 1000,100 to 1000,100 to 1000,10 to 100
"CNC(=O)c1cnc(Nc2cccc(NC(=O)COC)c2)nc1NC1Cc2ccccc2C1 [Example 114, 4-(2,3-dihydro-1H-inden-2-ylamino)-2-(3-(2-methoxyacetamido)phenylamino)-N-methylpyrimidine-5-carboxamide]",10 to 100,10 to 100,10 to 100,10 to 100
"NC(=O)c1cnc(Nc2ccc(Cl)c(NC(=O)N3CCCC3)c2)nc1NCc1cccc(Cl)c1 [Example 173, 2-(4-chloro-3-(pyrrolidine-1-carboxamido)phenylamino)-4-(3-chlorobenzylamino)pyrimidine-5-carboxamide]",> 1000,100 to 1000,100 to 1000,10 to 100

# Further lines, results first:
IC50 (JAK1) [nM],IC50 (JAK2) [nM],IC50 (TYK2) [nM],IC50 (JAK3) [nM],SMILES
10 to 100,10 to 100,10 to 100,10 to 100,CC(=O)Nc1cccc(Nc2ncc(C(N)=O)c(Nc3cccc(-c4ncccn4)c3)n2)c1 [Example 199]
10 to 100,10 to 100,10 to 100,1 to 10,"CCNc1nc(Nc2cccc(NC(=O)N3CCCC3)c2)ncc1C(N)=O [Example 134, 4-(ethylamino)-2-(3-(pyrrolidine-1-carboxamido)phenylamino)pyrimidine-5-carboxamide]"
10 to 100,1 to 10,1 to 10,< 1,"N#CCC(=O)Nc1cccc(Nc2ncc(C(N)=O)c(NCc3cccc(F)c3)n2)c1 [Example 257, 2-(3-(2-cyanoacetamido)phenylamino)-4-(3-fluorobenzylamino)-pyrimidine-5-carboxamide]"
10 to 100,10 to 100,10 to 100,1 to 10,"CC(=O)Nc1cccc(Nc2ncc(C(N)=O)c(NCC3CCCN(C(=O)Nc4ccc(F)cc4)C3)n2)c1 (stereo not shown) [Example 118, 2-(3-acetamidophenylamino)-4-((1-(4-fluorophenylcarbamoyl)piperidin-3-yl)methylamino)pyrimidine-5-carboxamide]"
10 to 100,10 to 100,10 to 100,1 to 10,"COCC(=O)N(c1cccc(Nc2ncc(C(N)=O)c(N[C@H](C)c3ccccc3)n2)c1)C1CC1 [Example 162, (R)-2-(3-(N-cyclopropyl-2-methoxyacetamido)phenylamino)-4-(1-phenylethylamino)pyrimidine-5-carboxamide]"
10 to 100,10 to 100,10 to 100,10 to 100,"CC(=O)Nc1cccc(Nc2ncc(C(N)=O)c(NCC3CCCNC3)n2)c1 (stereo not shown) [Example 116, 2-(3-acetamidophenylamino)-4-(piperidin-3-ylmethylamino)pyrimidine-5-carboxamide]"
10 to 100,10 to 100,1 to 10,1 to 10,"CC(=O)Nc1cccc(Nc2ncc(C(N)=O)c(N[C@@H]3CCc4ccccc43)n2)c1 [Example 97, (R)-2-(3-acetamidophenylamino)-4-(2,3-dihydro-1H-inden-1-ylamino)pyrimidine-5-carboxamide]"
10 to 100,10 to 100,10 to 100,10 to 100,"CC(=O)Nc1cccc(Nc2ncc(C(N)=O)c(NC3Cc4ccccc4C3)n2)c1 [Example 92, 2-(3-acetamidophenylamino)-4-(2,3-dihydro-1H-inden-2-ylamino)pyrimidine-5-carboxamide]"
10 to 100,10 to 100,10 to 100,10 to 100,"NC(=O)c1cnc(Nc2cccc(NC(=O)N3CCCC3)c2)nc1NCC(F)(F)F [Example 136, 2-(3-(pyrrolidine-1-carboxamido)phenylamino)-4-(2,2,2-trifluoroethylamino)pyrimidine-5-carboxamide]"
10 to 100,10 to 100,1 to 10,1 to 10,"COCC(=O)Nc1cccc(Nc2ncc(C(N)=O)c(NCC3CC3)n2)c1 [Example 124, 4-(cyclopropylmethylamino)-2-(3-(2-methoxyacetamido)phenylamino)pyrimidine-5-carboxamide]"
10 to 100,1 to 10,10 to 100,< 1,"C[C@@H](Nc1nc(Nc2cccc(NC(=O)N3CCOCC3)c2)ncc1C(N)=O)c1ccccc1 [Example 255, (R)—N-(3-(5-carbamoyl-4-(1-phenylethylamino)pyrimidin-2-ylamino)phenyl)morpholine-4-carboxamide]"
10 to 100,1 to 10,10 to 100,1 to 10,"CC(=O)Nc1cc(Nc2ncc(C(N)=O)c(Nc3cccc4c3cnn4C)n2)ccc1OCCN1CCCC1 [Example 256, 2-(3-acetamido-4-(2-(pyrrolidin-1-yl)ethoxy)phenylamino)-4-(1-methyl-1H-indazol-4-ylamino)pyrimidine-5-carboxamide]"
10 to 100,100 to 1000,100 to 1000,10 to 100,"CC(=O)Nc1cccc(Nc2ncc(C(=O)O)c(NCC3CCNC3)n2)c1 (stereo not shown) [Example 226, 2-(3-acetamidophenylamino)-4-(pyrrolidin-3-ylmethylamino)pyrimidine-5-carboxylic acid]"
